According to patent US8840939B2, “Vigna unguiculata seed extract and compositions containing same” (Laboratoires Expanscience, priority 2009, dated 2014):

Key:
MMP1 = test: Gene expression of MMP1 by fibroblasts (RT-PCR); type: cell-based; details: 5 ng/ml TGFβ1, normal human fibroblasts, 24 hours
Experimental: (§1) The effect of Vigna hydrolysate on the modulation of the extracellular matrix of the dermis was evaluated on a dermal fibroblast model wherein the gene expression of elastin and MMP1 was studied.
(§2) Normal human fibroblasts were treated for 24 hours with 0.01% and 0.05% (w/v) Vigna hydrolysate or with 5 ng/ml TGFβ1 (reference). The gene expression of elastin and MMP1 was analyzed by quantitative real-time RT-PCR.
(§3) The results were analyzed statistically by one-way analysis of variance (ANOVA) followed by Dunnett's test:
(§4) The level of gene expression was expressed in relative quantity (RQ) and the effect of the treatment in relation to the control cells in percentage of increase or inhibition.

elastin = test: Gene expression of elastin by fibroblasts (RT-PCR); type: cell-based; details: 5 ng/ml TGFβ1, normal human fibroblasts, 24 hours
Experimental: as §1, §2, §3, §4

IL8 = test: Release of IL8 by PMA-stimulated keratinocytes (ELISA); type: cell-based, Human; details: 10^−7 M dexamethasone, NCTC2544 keratinocytes, 0.1 μg/ml PMA 24 hours
Experimental: (§5) The anti-inflammatory effect of Vigna hydrolysate was evaluated by measuring the cytokines (IL1α, IL8) produced by keratinocytes in response to stimulation by PMA.
(§6) Human keratinocytes (NCTC2544 cell line) were preincubated for 24 hours with 0.05% (w/v) Vigna hydrolysate or the reference molecule (10^−7 M dexamethasone). The cells were then treated with 0.1 μg/ml PMA, always in the presence of Vigna hydrolysate or dexamethasone, for 24 hours. The quantities of IL1α and IL8 released in the culture medium were evaluated by ELISA.
(§7) The results were analyzed statistically by one-way analysis of variance (ANOVA) followed by Tukey's test:
(§8) The percentage of inhibition in relation to the stimulated control (PMA) was calculated.

IL1α = test: Release of IL1α by PMA-stimulated keratinocytes (ELISA); type: cell-based, Human; details: 10^−7 M dexamethasone, NCTC2544 keratinocytes, 0.1 μg/ml PMA 24 hours
Experimental: as §5, §6, §7, §8

## TGFβ1: 5 ng/ml TGFβ1 (reference)
MMP1
  MMP1 gene expression, percentage of inhibition in relation to the control cells: −88%
  MMP1 gene expression, relative quantity (RQ): 0.12
elastin
  ELASTIN gene expression, percentage of increase in relation to the control cells: +559%
  ELASTIN gene expression, relative quantity (RQ): 6.59

## C[C@@H]1C[C@H]2[C@@H]3CCC4=CC(=O)C=C[C@]4(C)[C@@]3(F)[C@@H](O)C[C@]2(C)[C@@]1(O)C(=O)CO [dexamethasone]
IL8
  IL8: 6.0 ± 0.2 ng/mL
IL8; Homo sapiens, NCTC-2544, read-out: IL8, percentage of inhibition in relation to the stimulated control (PMA) (converted)
  inhibition at 0.1 µM: 81%
IL1α
  IL1α: 14.0 ± 3.5 pg/mL
IL1α; Homo sapiens, NCTC-2544, read-out: IL1α, percentage of inhibition in relation to the stimulated control (PMA) (converted)
  inhibition at 0.1 µM: 82%
